pIC50: −log10 of the molar value. Values after ≈ are worked out from the molar mass of the structure shown. Where two headings read alike, the source gives them in different places.
Key:
[1] = system: Methicillin resistant Staphylococcus aureus (ATCC 33591); assay: MIC by microbroth dilution, MRSA ATCC 33591; assay type: cell-based
Protocol: (§1) Shown below are the microbiological activities of representative compounds of Formula I of the invention. The compounds were tested by the microbroth dilution method (National committee for Clinical Laboratory Standards, 2011, M07-08) and the Minimum Inhibitory Concentration (MIC) was determined.
(§2) Analysis of microbiological activity of compounds shown below are the microbiological activities of representative compounds of Formula II of the invention. The compounds were tested by the microbroth dilution method as per the reference in Example 1.

E. coli (ATCC 25922) = assay: MIC by microbroth dilution, E. coli ATCC 25922; assay type: cell-based; details: Escherichia coli
Protocol: as §1, §2

[2] = Single dose pharmacokinetics in male Swiss albino mice; assay type: in vivo; details: mouse, in vivo; for bioavailability: oral 10 mg/kg vs i.v. 5 mg/kg
Protocol: (§3) Compounds were dosed to male Swiss albino mice to determine the pharmacokinetic profiles.
as §3

E. faecalis ATCC 51299 = assay: MIC by microbroth dilution, E. faecalis ATCC 51299; assay type: cell-based; details: Enterococcus faecalis, ATCC51299, Formula II compounds, read-out: Minimum Inhibitory Concentration (MIC) E. faecalis ATCC 51299
Protocol: as §1, §2

Acinetobacter BAA747 = assay: MIC by microbroth dilution, Acinetobacter BAA747; assay type: cell-based; details: Formula II compounds, read-out: Minimum Inhibitory Concentration (MIC) Acinetobacter BAA747
Protocol: as §1, §2

Pseudomonas ATCC 27853 = assay: MIC by microbroth dilution, Pseudomonas ATCC 27853; assay type: cell-based; details: ATCC27853, Formula II compounds, read-out: Minimum Inhibitory Concentration (MIC) Pseudomonas ATCC 27853
Protocol: as §1, §2

[3] = molecular target: T1, ciprofloxacin resistant recombinant Gyrase protein (with mutation S83L) (Escherichia coli, UniProt P0AES4+P0AES6, S83L); assay: Gyrase supercoiling assay with ciprofloxacin resistant Gyrase (S83L); assay type: biochemical; details: read-out: Target specificity: % inhibition of supercoiling activity
T1 construct: purchased Inspiralis
Protocol: The enzyme is incubated with the substrate (relaxed DNA) in the presence and absence of compounds for 1 hour at 37° C. and the DNA is run on a gel at low voltage for several hours. The amount of supercoiled DNA is quantified using DNA imaging and quantification software (Image Lab). The activity of the enzyme is proportional to the amount of supercoiled form detected.

hERG = hERG (Homo sapiens, UniProt Q12809); assay: biochemical
Protocol: To test the ability of the VT-03 compounds to bind the hERG channel, membranes expressing the hERG channel were incubated with radiolabeled Astemizole and displacement of the labeled ligand in the presence of compounds was measured.
To test the ability of the VT-03 compounds (of Formula II) to bind the hERG channel, membranes expressing the hERG channel were incubated with radiolabeled Astemizole and displacement of the labeled ligand in the presence of compounds was measured.

[4] = system: Staphylococcus aureus (ATCC 29213); assay: MIC by microbroth dilution, Staphylococcus aureus ATCC 29213; assay type: cell-based; details: ATCC29213
Protocol: (§4) Shown below are the microbiological activities of representative compounds of Formula I of the invention. The compounds were tested by the microbroth dilution method (National committee for Clinical Laboratory Standards, 2011, […]-08) and the Minimum Inhibitory Concentration (MIC) was determined.

[5] = system: Streptococcus pneumoniae (ATCC 6301); assay: MIC by microbroth dilution, Streptococcus pneumoniae ATCC 6301; assay type: cell-based; details: ATCC6301
Protocol: as §4

[6] = system: Enterococcus faecalis (ATCC 29212); assay: MIC by microbroth dilution, Enterococcus faecalis ATCC 29212; assay type: cell-based; details: ATCC29212
Protocol: as §4

MRSA E9823 = assay: MIC against FQ resistant clinical strain MRSA E9823; assay type: cell-based; details: Staphylococcus aureus, fluoroquinolone resistant clinical strain, read-out: MIC against FQ resistant strains, MRSA E9823
Protocol: as §1
(§5) To test if compounds are able to overcome fluoroquinolone resistance, we have determined the MICS against Fluoroquinolone (FQ) resistant clinical strains of MRSA and E. coli.

MRSA E9749 = assay: MIC against FQ resistant clinical strain MRSA E9749; assay type: cell-based; details: Staphylococcus aureus, fluoroquinolone resistant clinical strain, read-out: MIC against FQ resistant strains, MRSA E9749
Protocol: as §1, §5

[7] = system: Moraxella catarrhalis (ATCC 8176); assay: MIC by microbroth dilution, Moraxella catarrhalis ATCC 8176; assay type: cell-based; details: ATCC8176
Protocol: as §4

[8] = system: K. pneumoniae (ATCC 700603); assay: MIC by microbroth dilution, K. pneumoniae ATCC 700603; assay type: cell-based; details: Klebsiella pneumoniae, ATCC700603, Formula I compounds
Protocol: as §1, §2

E. coli Gyrase = molecular target: T2, E. coli Gyrase (Escherichia coli, UniProt P0AES4+P0AES6); assay: in vitro Gyrase supercoiling assay (Inspiralis kit); assay type: biochemical; details: 1 hour at 37° C., read-out: % inhibition of DNA supercoiling activity
T2 construct: purchased Inspiralis
Protocol: To test for target specificity, the activity of compounds was evaluated in an in vitro Gyrase assay using recombinant Gyrase protein as per the instructions of the assay kit (Inspiralis). The assay measures the ability of E. coli Gyrase to convert relaxed plasmid DNA into the supercoiled form. The enzyme is incubated with the substrate (relaxed DNA) in the presence and absence of compounds for 1 hour at 37° C. and the DNA is run on a gel at low voltage for several hours. The gel is then stained with Ethidium bromide and DNA in the different forms is quantified using DNA imaging and quantification software (Image Lab). The activity of the enzyme is proportional to the amount of supercoiled form detected.

[9] = Formula II compounds, read-out: Minimum Inhibitory Concentration (MIC) MRSA ATCC 33591
[10] = ATCC25922, Formula II compounds, read-out: Minimum Inhibitory Concentration (MIC) E. coli ATCC 25922
[11] = ATCC33591, Formula I compounds, read-out: MIC Methicillin resistant Staphylococcus aureus (ATCC 33591)
[12] = ATCC25922, Formula I compounds, read-out: MIC E. coli (ATCC 25922)

Structure (SMILES) | MIC [4] [µg/mL] | MIC [1, 11] [µg/mL] | MIC [5] [µg/mL] | MIC [6] [µg/mL] | MIC (E. coli (ATCC 25922); [12]) [µg/mL] | MIC [7] [µg/mL] | MIC [8] [µg/mL] | MIC [1, 9] [µg/mL] | MIC (E. coli (ATCC 25922); [10]) [µg/mL] | AUC(0-t) ([2]; iv, 5 mg/kg) [ng·h/mL] | Cmax ([2]; iv, 5 mg/kg) [ng/mL] | Tmax ([2]; iv, 5 mg/kg) [min] | half-life ([2]; iv, 5 mg/kg) [min] | bioavailability [2] [%] | AUC(0-t) ([2]; oral, 10 mg/kg) [ng·h/mL] | Cmax ([2]; oral, 10 mg/kg) [ng/mL] | Tmax ([2]; oral, 10 mg/kg) [min] | MIC (E. faecalis ATCC 51299) [µg/mL] | MIC (Acinetobacter BAA747) [µg/mL] | pIC50 (hERG) | also measured
Cc1ccc(CNC2CCN(CCn3c(=O)cnc4ccc(Cl)nc43)CC2)cc1[N+](=O)[O-] [VT-03-00118] | – | – | – | – | – | – | – | 0.015 (≈ 0.0328 µM) | 0.25 (≈ 0.547 µM) | 497 | 913 | 9.6 | 22.2 | 1.12 | 9.3 | 18.6 | 60 | 0.125 (≈ 0.274 µM) | 0.25 (≈ 0.547 µM) | < 4.52 | half-life ([2]; oral, 10 mg/kg): 666 min; MIC (Pseudomonas ATCC 27853): 8 µg/mL (≈ 17.5 µM); inhibition at 0.1 µM [3]: 91.5%; inhibition at 1 µM [3]: 89%
Cc1ccc(CNC2CCN(CCn3c(=O)cnc4ccc(F)cc43)CC2)cc1[N+](=O)[O-] [VT-03-00113] | – | – | – | – | – | – | – | 0.03 (≈ 0.0683 µM) | 0.125 (≈ 0.284 µM) | 402 | 672 | 9.6 | 22.2 | 1.16 | 9.3 | 15.6 | 30 | 0.25 (≈ 0.569 µM) | 0.25 (≈ 0.569 µM) | – | MIC (Pseudomonas ATCC 27853): 8 µg/mL (≈ 18.2 µM); inhibition at 0.1 µM [3]: 90%; inhibition at 1 µM [3]: 94%
COc1ccc2ncc(=S)n(CCN3CCC(NCc4ccc(C)c([N+](=O)[O-])c4)CC3)c2c1 [VT-03-00127] | – | – | – | – | – | – | – | 0.125 (≈ 0.267 µM) | 1 (≈ 2.14 µM) | 527 | 478 | 9.6 | 120 | 18.8 | 198 | 97 | 30 | 1 (≈ 2.14 µM) | 1 (≈ 2.14 µM) | – | half-life ([2]; oral, 10 mg/kg): 173 min; MIC (Pseudomonas ATCC 27853): 8 µg/mL (≈ 17.1 µM); inhibition at 0.1 µM [3]: 39%; inhibition at 1 µM [3]: 72%
COc1ccc2ncc(=O)n(CCN3CCC(NCc4ccc(C)c([N+](=O)[O-])c4)CC3)c2c1 [VT-03-00062] | ≤ 0.0075 | 0.015 (≈ 0.0332 µM) | 0.015 (≈ 0.0332 µM) | 0.12 (≈ 0.266 µM) | 0.5 (≈ 1.11 µM) | ≤ 0.06 | 8 (≈ 17.7 µM) | – | – | – | – | – | – | – | – | – | – | – | – | – | MIC (MRSA E9823): ≤ 0.0075 µg/mL; MIC (MRSA E9749): 0.015 µg/mL (≈ 0.0332 µM); inhibition at 0.1 µM (E. coli Gyrase; 0.1 μM compound): 91.5%; inhibition at 1 µM (E. coli Gyrase; 1 μM compound): 98.7%

More lines, main results first:

MIC [4] [µg/mL] | MIC [1, 11] [µg/mL] | MIC [5] [µg/mL] | MIC [6] [µg/mL] | MIC (E. coli (ATCC 25922); [12]) [µg/mL] | MIC [7] [µg/mL] | MIC [8] [µg/mL] | Structure (SMILES) | MIC [1, 9] [µg/mL] | MIC (E. coli (ATCC 25922); [10]) [µg/mL] | AUC(0-t) ([2]; iv, 5 mg/kg) [ng·h/mL] | Cmax ([2]; iv, 5 mg/kg) [ng/mL] | Tmax ([2]; iv, 5 mg/kg) [min] | half-life ([2]; iv, 5 mg/kg) [min] | bioavailability [2] [%] | AUC(0-t) ([2]; oral, 10 mg/kg) [ng·h/mL] | Cmax ([2]; oral, 10 mg/kg) [ng/mL] | Tmax ([2]; oral, 10 mg/kg) [min] | MIC (E. faecalis ATCC 51299) [µg/mL] | MIC (Acinetobacter BAA747) [µg/mL] | pIC50 (hERG) | also measured
0.125 (≈ 0.277 µM) | 0.25 (≈ 0.554 µM) | 1 (≈ 2.21 µM) | 4 (≈ 8.86 µM) | 16 (≈ 35.4 µM) | – | – | COc1ccc2ncc(C#N)c(CCN3CCC(NCc4ccc([N+](=O)[O-])s4)CC3)c2c1 [VT-03-00052] | – | – | – | – | – | – | – | – | – | – | – | – | – | MIC (MRSA E9823): 0.25 µg/mL (≈ 0.554 µM); MIC (MRSA E9749): 0.25 µg/mL (≈ 0.554 µM)
0.25 (≈ 0.526 µM) | 0.5 (≈ 1.05 µM) | 0.25 (≈ 0.526 µM) | 2 (≈ 4.21 µM) | 4 (≈ 8.41 µM) | 0.25 (≈ 0.526 µM) | > 32 | COc1ccc2ncc(C#N)c(CCN3CCC(NCc4ccc(OC)c([N+](=O)[O-])c4)CC3)c2c1 [VT-03-00063] | – | – | – | – | – | – | – | – | – | – | – | – | < 4.52 | –
0.015 (≈ 0.0304 µM) | 0.06 (≈ 0.121 µM) | 0.03 (≈ 0.0607 µM) | 0.25 (≈ 0.506 µM) | 1 (≈ 2.02 µM) | 0.5 (≈ 1.01 µM) | 16 (≈ 32.4 µM) | COc1ccc2ncc(C#N)c(CCN3CCC(NC(=O)c4ccc(Cl)c([N+](=O)[O-])c4)CC3)c2c1 [VT-03-00058] | – | – | – | – | – | – | – | – | – | – | – | – | < 4.52 | –
0.25 (≈ 0.554 µM) | 0.25 (≈ 0.554 µM) | 1 (≈ 2.21 µM) | 2 (≈ 4.43 µM) | 4 (≈ 8.86 µM) | 0.5 (≈ 1.11 µM) | > 32 | COc1ccc2ncc(C#N)c(CCN3CCC(NCc4csc([N+](=O)[O-])c4)CC3)c2c1 [VT-03-00053] | – | – | – | – | – | – | – | – | – | – | – | – | < 4.52 | –

— patent US20170197935A1, “INHIBITORS OF DNA GYRASE FOR THE TREATMENT OF BACTERIAL INFECTIONS” (Vitas Pharma Research Private Limited, priority 2012, published 2017)
